Source: US20030180294A1, “Methods of extending corneal graft survival” (priority 2002, published 2003)

Tests used:
[1] = test system: corneal transplants in the Lewis/Wistar-Furth combination; test: rat model of keratoplasty, corneal graft survival; assay type: in vivo; conditions: Lewis cornea to Wistar-Furth recipient, systemic 0.5 to 200 mg/kg/day or eye drop 0.05% to 5.0%, versus vehicle (rejection on average at day 30)
Method: Grafts are prepared and transferred according to the well-characterized rat model of keratoplasty with transplantation of corneas from Lewis strain rats to Wistar-Furth recipients (Callanan et al., Transplantation 45:437-443 (1988)). Each treatment group administered vehicle or test agent includes nine to fourteen rats. Grafts are observed clinically and scored three times per week for signs of rejection according to the criteria in Callanan et al., supra, 1988. Day 60 following surgery represents a two-fold prolongation in the expected mean survival time for corneal transplants in the Lewis/Wistar-Furth combination and therefore is selected as an advantageous time for terminating treatment. Rats bearing grafts not rejected by day 60 are observed for an additional 14 days to determine if the host's immune system has been tolerized. At this time, 80% of the grafted eyes are snap frozen for cryostat sectioning, and the remaining 20% of the eyes are fixed in formalin for H & E staining.
The VEGFR-3 tyrosine kinase inhibitor MAE87, MAE106 or MAZ51 is administered systemically at various concentrations, ranging from 0.5 to 200 mg/kg/day. In other animals, the compound is administered as an eye drop solution in various concentrations ranging from 0.05% to 5.0% and administered as various frequencies (once per day, two times per day and three times per day).

[2] = molecular target: VEGFR-3 (Homo sapiens, UniProt P35916); conditions: VEGF-C and VEGF-D induced; cited from earlier work
Chain of VEGFR-3 (P35916 25-1363, species assumed): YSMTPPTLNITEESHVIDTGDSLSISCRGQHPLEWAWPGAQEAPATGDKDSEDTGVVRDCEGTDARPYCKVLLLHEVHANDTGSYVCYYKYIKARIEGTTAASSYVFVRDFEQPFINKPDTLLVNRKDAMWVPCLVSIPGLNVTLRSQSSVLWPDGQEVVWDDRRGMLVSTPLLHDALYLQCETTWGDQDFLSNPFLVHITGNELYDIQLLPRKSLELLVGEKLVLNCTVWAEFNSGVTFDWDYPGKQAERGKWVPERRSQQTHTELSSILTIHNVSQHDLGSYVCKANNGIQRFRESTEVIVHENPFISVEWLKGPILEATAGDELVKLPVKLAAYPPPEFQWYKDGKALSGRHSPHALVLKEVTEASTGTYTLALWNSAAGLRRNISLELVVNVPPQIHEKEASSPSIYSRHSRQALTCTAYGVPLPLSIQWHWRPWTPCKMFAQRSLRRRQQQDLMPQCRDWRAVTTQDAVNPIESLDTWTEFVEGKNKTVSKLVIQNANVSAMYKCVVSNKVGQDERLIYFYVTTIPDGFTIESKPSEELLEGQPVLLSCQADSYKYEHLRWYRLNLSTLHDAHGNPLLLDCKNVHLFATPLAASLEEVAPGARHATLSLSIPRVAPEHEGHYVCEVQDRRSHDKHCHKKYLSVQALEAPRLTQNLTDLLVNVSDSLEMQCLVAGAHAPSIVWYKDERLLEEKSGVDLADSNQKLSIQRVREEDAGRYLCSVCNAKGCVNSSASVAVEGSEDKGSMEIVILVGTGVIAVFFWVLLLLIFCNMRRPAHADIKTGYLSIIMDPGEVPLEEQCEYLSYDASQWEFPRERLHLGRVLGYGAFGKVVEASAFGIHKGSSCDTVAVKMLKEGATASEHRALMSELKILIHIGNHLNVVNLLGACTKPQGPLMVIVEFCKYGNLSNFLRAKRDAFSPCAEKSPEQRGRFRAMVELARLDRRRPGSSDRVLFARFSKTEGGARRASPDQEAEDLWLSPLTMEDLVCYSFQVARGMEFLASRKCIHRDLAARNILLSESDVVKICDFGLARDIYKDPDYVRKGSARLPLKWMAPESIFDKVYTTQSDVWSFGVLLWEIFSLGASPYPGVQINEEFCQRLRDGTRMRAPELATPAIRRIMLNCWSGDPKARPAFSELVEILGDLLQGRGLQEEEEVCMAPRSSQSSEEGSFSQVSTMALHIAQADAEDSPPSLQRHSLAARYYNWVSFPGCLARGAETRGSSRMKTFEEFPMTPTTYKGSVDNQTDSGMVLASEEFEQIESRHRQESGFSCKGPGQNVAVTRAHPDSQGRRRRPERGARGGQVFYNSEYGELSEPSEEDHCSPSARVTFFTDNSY

Compound	mean graft survival (delay in evidence of graft rejection) [1]	VEGFR-3 kinase activity versus VEGFR-2 (specificity) [2]
O=C1Nc2ccccc2C1=Cc1ccc(O)cc1O [MAE87, 3(2,4-dihydroxy-benzylidene)-1,3-dihydro-indol-2-one]	increased mean graft survival	
COc1ccc(C=C2C(=O)Nc3ccccc32)cc1F [MAE106, 3-(3-fluoro-4-methoxy-benzylidene)-1,3-dihydro-indol-2-one]	increased mean graft survival	differentially block VEGF-C and VEGF-D induced VEGFR-3 kinase activity compared to that of VEGFR-2
CN(C)c1ccc(C=C2C(=O)Nc3ccccc32)c2ccccc12 [MAZ51, 3-(4-dimethylamino-naphthalen-1-ylmethylene)-1,3-dihydro-indol-2-one]	increased mean graft survival	differentially block VEGF-C and VEGF-D induced VEGFR-3 kinase activity compared to that of VEGFR-2
